Patent US7220576B2, “Methods and compositions for protein expression and purification” (Lifesensors, Inc., priority 2002, dated 2007)
Several values for one entry are separate records, joined by “and”; a condition that tells them apart may be missing. Equal entries are not always repeated. Entries after “also recorded” stand apart in the source; their conditions may differ. Non-standard residues stand in square brackets, D forms with d. Residues, ends and D or L forms follow the SMILES beside them. *: point of attachment. Sta = CC(C)C[C@H](N)[C@@H](O)CC(=O)O; Isovaleryl = CC(C)CC(=O)*

Legend:
Ulp1 Hydrolase = target: T1, Ulp1 Hydrolase (Saccharomyces cerevisiae, UniProt Q02724); test: In vitro Ulp1 cleavage of His6SUMO-GFP under various additives/conditions; assay type: biochemical, yeast; conditions: for Ulp1 activity remaining: 0.5 M Gdm HCl, hydrochloride
T1 construct: C-terminal His-tagged SUMO hydrolase/protease Ulp (403–621)p (21) (27) was expressed from pET24d; His tag (C); made in house; host or cells: E. coli Rosetta (DE3) pLysS, vector pET24d
T1 sequence (Q02724 403-621): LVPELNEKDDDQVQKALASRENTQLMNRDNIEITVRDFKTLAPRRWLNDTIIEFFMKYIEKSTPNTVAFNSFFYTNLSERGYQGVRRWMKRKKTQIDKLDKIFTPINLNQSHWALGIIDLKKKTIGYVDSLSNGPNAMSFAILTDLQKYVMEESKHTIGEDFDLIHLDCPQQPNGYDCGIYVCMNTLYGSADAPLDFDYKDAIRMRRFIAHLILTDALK
Protocol: Ni-NTA purified His6SUMO-GFP was incubated with Ulp1 under the indicated conditions for one hour at room temperature unless indicated otherwise. Low molecular weight markers (LMW) are also provided.
Ni-NTA purified His6SUMO-GFP was incubated with Ulp1 and 10 mM of various protease inhibitors for 1 hour at room temperature. Lane markers: Norm is addition of Ulp1 and N-ethymaleimide (NEM) to the substrate at the same time, Pre is the incubation of Ulp1 with NEM prior to the addition of substrate, +Ve is the absence of any inhibitor, −Ve is in the absence of Ulp1, lane 1 is with E-64, lane 2 is with EDTA, lane 3 is with leupeptin, lane 4 is with NEM, lane 5 is with pepstatin, lane 6 is with TLCK. Low molecular weight markers (LMW) are also provided.
The effects of various additives/conditions and temperature upon the in vitro cleavage reaction were determined as follows: His6smt3MeGFP was expressed from pET24d in Rosetta (DE3) pLysS (Novagen). The recombinant protein was purified as before using Ni-NTA agarose (Qiagen) and then buffer exchanged into 20 mM Tris-HCl pH 8.0, 150 mM NaCl and 5 mM β-mercaptoethanol using a PD-10 column (AP Biotech). Cleavage reactions were performed with 100 ug of the purified protein, 0.5 ul of enzyme, the appropriate amount of a stock solution of additive to generate the final concentrations listed in Table 4, plus the exchange buffer up to a final volume of 200 ul. Reactions were incubated for 1 hour at 37° C. except for those at 4° C. were incubated for 3 hours. […] Generally, His tagged proteins are purified on nickel columns and eluted with imidazole.

SUMO hydrolase Ulp1 = target: T2, SUMO hydrolase Ulp1 (Saccharomyces cerevisiae, UniProt Q02724); test: In vitro cleavage of purified SUMO fusion proteins by SUMO hydrolase Ulp1; assay type: biochemical, yeast
T2 construct: C-terminal His-tagged SUMO hydrolase/protease Ulp (403–621)p (21) (27) was expressed from pET24d; His tag (C); made in house; host or cells: E. coli Rosetta (DE3) pLysS, vector pET24d
T2 sequence (Q02724 403-621): T1 sequence (Q02724 403-621)

E. coli [1] = test: Soluble versus insoluble fraction of fusion proteins expressed in E. coli; assay type: cell-based
Protocol: E. coli were harvested by mild centrifugation and washed once with PBS buffer. Cells were resuspended in 4 ml of PBS and ruptured by several pulses of sonication. Unbroken cells were removed by mild centrifugation (5 min at 1500×g) and supernatants were sonicated again to ensure complete cell lysis. An aliquot (5 μl) was mixed with 2% SDS to ensure that no viscosity is detected owing to lysis of unbroken cells. After ensuring that no unbroken cells remained in the lysate, insoluble material consisting of cell walls, inclusion bodies and membrane fragments was sedimented by centrifugation (18,000×g for 10 min). The supernatant was considered “Soluble fraction”.
The pellets were washed from any remaining soluble proteins, lipids and peptidoglycan as follows. Pellets were resuspended in 600 μl of PBS and to the suspensions 600 μl of solution containing 3 M urea and 1% Tri ton X100 was added. The suspension was briefly vortexed and insoluble material was collected by centrifugation as above. […]
Human nuclear receptor proteins, such as steroid receptors, contain ligand-binding domains. […] The ligand-binding domain of LXR was expressed as SUMO fusion in Rosetta plysS cell at 20° C. or 37° C. and the pattern of soluble and insoluble protein was analyzed. […] The original induced culture (I), supernatant from lysed cells (S) and resuspended pellet (P) were analyzed on 12% SDS-PAGE. […]

E. coli [2] = test: GFP fluorescence in soluble fractions of E. coli; assay type: cell-based; conditions: 37° C., approx. 0.1 mg soluble protein, Ex 485 nm/Em 510 nm
Protocol: GFP fluorescence was measured in soluble fractions (approx. 0.1 mg of soluble protein in a final volume of 40 μl) using Fluoroscan Accent FL fluorometer (LabSystems) with Excitation 485 nm/Emission 510 nm filter set with the exposure set to 40 sec. The data are presented in Arbitrary Units (AU).
The design and construction of all the UBL E. coli expression vectors has been described above. The DNA sequences, accession numbers of the UBL-GFP fusion proteins, and translation frames are shown FIGS. 25–32. […] Un-fused GFP is generally poorly expressed in E. coli. […] Induced cells were broken by sonication and soluble proteins were analyzed on SDS-polyacrylamide gels. […] To determine if the fusion proteins were folded correctly, we determined the fluorescence properties of proteins in the soluble fraction.

[3] = protease inhibitors, 10 mM per FIG. 17 legend

## Cl.N=C(N)N [Gdm HCl, guanadinium hydrochloride]
Ulp1 Hydrolase
  Ulp1 activity remaining: Ulp1 shows 50% activity in 0.5 M but is completely
Ulp1 Hydrolase; listed as guanadinium hydrochloride
  Ulp1 activity remaining: 50%
Ulp1 Hydrolase; 1 M Gdm HCl
  Effect on Ulp1 hydrolase activity: inactive in 1 M concentrations

## CCCCCCCCCCCCOS(=O)(=O)[O-].[Na+] [SDS]
Ulp1 Hydrolase; 0.01% SDS
  Effect on Ulp1 hydrolase activity: highly active and 0.01% SDS blocks activity

## NC(N)=O [Urea]
Ulp1 Hydrolase; urea up to and including 2 M, listed as urea
  Effect on Ulp1 hydrolase activity: did not effect the activity; also recorded: does not inhibit the hydrolase

## SUMO-β-galactosidase: SUMO fusion of E. coli β-galactosidase, a 110 KDa protein (SEQ ID NO: 31)
SUMO hydrolase Ulp1; 20 minutes, room temperature
  Share of protein cleaved by SUMO hydrolase: 100%

## SUMO-GFP: SUMO fused to N-terminus of GFP (SEQ ID NO: 5)
E. coli [1]; 26° C. overnight, FIG. 4B
  Solubility of UBL-GFP fusion (soluble panel of stained gel): able to solubilize fused GFP
E. coli [1]; 37° C., FIG. 4A
  Solubility of UBL-GFP fusion (soluble panel of stained gel): able to solublize the GFP
E. coli [2]
  GFP fluorescence of soluble fraction (correct folding): able to fluoresce
SUMO hydrolase Ulp1; purified fusion protein from E. coli
  In vitro cleavage by Ulp1 / SUMO hydrolase: completely digested

## CCN1C(=O)C=CC1=O [N-ethylmaleimide]
Ulp1 Hydrolase; enzyme preincubated with inhibitor before addition of substrate, listed as N-ethymaleimide
  Effect of protease inhibitor on Ulp1 hydrolase activity: active

## CC(C)C[C@H](NC(=O)[C@H]1O[C@@H]1C(=O)O)C(=O)NCCCCN=C(N)N [E-64]
Ulp1 Hydrolase; [3]
  Effect of protease inhibitor on Ulp1 hydrolase activity: Cysteine protease inhibitor; no affect

## c1c[nH]cn1 [Imidazole]
Ulp1 Hydrolase; imidazole 0 to 300 mM
  Effect on Ulp1 hydrolase activity: Ulp1 shows similar activity in the range of
Ulp1 Hydrolase; imidazole 0 to 300 mM, listed as imidazole
  Effect on Ulp1 hydrolase activity: remarkably active

## Cc1ccc(S(=O)(=O)N[C@@H](CCCCN)C(=O)CCl)cc1.Cl [TLCK-HCl]
Ulp1 Hydrolase; [3]
  Effect of protease inhibitor on Ulp1 hydrolase activity: chymotrypsin-like specificity; no affect
Ulp1 Hydrolase; protease inhibitors, 10 mM per FIG. 17 legend, listed as TLCK
  Effect of protease inhibitor on Ulp1 hydrolase activity: no effect

## O=S(=O)(F)Cc1ccccc1 [PMSF]
Ulp1 Hydrolase; [3]
  Effect of protease inhibitor on Ulp1 hydrolase activity: no effect; also recorded: Serine protease inhibitor; no affect

## O=C(O)CN(CCN(CC(=O)O)CC(=O)O)CC(=O)O [EDTA]
Ulp1 Hydrolase; [3]
  Effect of protease inhibitor on Ulp1 hydrolase activity: no effect; also recorded: Metalloprotease inhibitor; no affect

## CC(C)CC(=O)N[C@H](C(=O)N[C@H](C(=O)N[C@@H](CC(C)C)[C@@H](O)CC(=O)N[C@@H](C)C(=O)N[C@@H](CC(C)C)[C@@H](O)CC(=O)O)C(C)C)C(C)C [Pepstatin] (Isovaleryl-VV[Sta]A[Sta]-OH)
Ulp1 Hydrolase; [3]
  Effect of protease inhibitor on Ulp1 hydrolase activity: no effect; also recorded: Aspartate protease inhibitor; no affect

## Triton-X
Ulp1 Hydrolase; up to 1% triton X 100
  Effect on Ulp1 hydrolase activity: highly active

## CC(=O)N[C@@H](CC(C)C)C(=O)N[C@@H](CC(C)C)C(=O)N[C@H](C=O)CCCNC(=N)N [Leupeptin]
Ulp1 Hydrolase; [3]
  Effect of protease inhibitor on Ulp1 hydrolase activity: no effect; also recorded: like specificity; no affect
